Results from patent US20250320184A1 (SIRONAX LTD., priority 2022, published 2025).

biological target: T1, SARM1 (50-724) (Homo sapiens, UniProt Q6SZW1); test: biochemical
T1 sequence (Q6SZW1 50-724): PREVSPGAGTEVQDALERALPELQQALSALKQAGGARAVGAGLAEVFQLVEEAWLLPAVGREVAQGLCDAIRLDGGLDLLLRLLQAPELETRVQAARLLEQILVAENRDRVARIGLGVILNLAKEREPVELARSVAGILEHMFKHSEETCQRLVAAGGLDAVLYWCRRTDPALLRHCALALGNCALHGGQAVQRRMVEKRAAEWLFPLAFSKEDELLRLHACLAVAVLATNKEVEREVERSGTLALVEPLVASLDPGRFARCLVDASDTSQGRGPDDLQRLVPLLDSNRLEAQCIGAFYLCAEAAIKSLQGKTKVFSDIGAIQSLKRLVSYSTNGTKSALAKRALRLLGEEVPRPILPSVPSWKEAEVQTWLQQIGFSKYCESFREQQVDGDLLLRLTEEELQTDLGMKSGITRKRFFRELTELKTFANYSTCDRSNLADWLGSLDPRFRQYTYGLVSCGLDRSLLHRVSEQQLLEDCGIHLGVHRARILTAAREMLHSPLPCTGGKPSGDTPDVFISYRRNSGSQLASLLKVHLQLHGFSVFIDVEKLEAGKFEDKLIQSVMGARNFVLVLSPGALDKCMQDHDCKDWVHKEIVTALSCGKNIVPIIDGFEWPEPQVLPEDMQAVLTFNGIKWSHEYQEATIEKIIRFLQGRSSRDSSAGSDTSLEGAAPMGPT
Description: An enzymatic assay was performed in a 384-well plate using Dulbecco's phosphate-buffered saline (PBS) as the reaction buffer. […] The reaction was initiated by adding a mixture of 200 μM nicotinamide mononucleotide (NMN) as activator and 100 μM NAD^+ as substrate. After 1 h of incubation at room temperature, the reaction was terminated with 10 times volume of 70% acetonitrile, then centrifuged at 3800 rpm for 10 min.

| IC50 [nM] | SMILES |
| --- | --- |
| < 100 | CC1(C)C(=O)Nc2cc(NC(CO)c3c(Cl)ccc(F)c3Cl)ccc21 (racemic) [Example 238, 6-((1-(2,6-dichloro-3-fluorophenyl)-2-hydroxyethyl)amino)-3,3-dimethylindolin-2-one] |
| > 1000 | O=C1NCCc2ccc(NS(=O)(=O)c3c(F)cc(F)cc3F)cc21 [Compound 38, 2,4,6-trifluoro-N-(1-oxo-3,4-dihydro-2H-isoquinolin-7-yl)benzenesulfonamide] |
| < 100 | CC(Nc1ccc2ccc(=O)[nH]c2c1)c1nc(Cl)c(Cl)s1 (racemic) [Compound 231, 7-[1-(4,5-dichlorothiazol-2-yl)ethylamino]-1H-quinolin-2-one] |
| < 100 | Cc1nn(CC(N)=O)c2cc(NC(C)c3nc(Cl)c(Cl)s3)cc(F)c12 (racemic) [Compound 337, 2-(6-((1-(4,5-dichlorothiazol-2-yl)ethyl)amino)-4-fluoro-3-methyl-1H-indazol-1-yl)acetamide] |
| 100 to 500 | Cn1c(C(N)=O)nc2cc(NS(=O)(=O)c3cccc(Cl)c3Cl)ccc21 [Compound 225, 5-((2,3-dichlorophenyl)sulfonamido)-1-methyl-1H-benzo[d]imidazole-2-carboxamide] |
| < 100 | CC(Nc1cc(F)c2ncn(-c3cnn[nH]3)c(=O)c2c1)c1nc(Cl)c(Cl)s1 (racemic) [Example 372, 6-((1-(4,5-dichlorothiazol-2-yl)ethyl)amino)-8-fluoro-3-(1H-1,2,3-triazol-5-yl)quinazolin-4(3H)-one] |
| < 100 | CC(Nc1ccc2c(C(F)(F)F)n(CC(N)=O)nc2c1)c1nc(Cl)c(Cl)s1 (racemic) [Compound 366, 2-(6-((1-(4,5-dichlorothiazol-2-yl)ethyl)amino)-3-(trifluoromethyl)-2H-indazol-2-yl)acetamide] |
| 500 to 1000 | COc1nccc(C(C)Nc2ccc3c(c2)C(=O)NCC3)c1Cl (single isomer, unassigned) [Example 95] |
| < 100 | Cc1c2ccc(NC(C)c3sc(Cl)nc3Cl)cc2nn1CC(N)=O (single isomer, unassigned) [Compound 347] |
| < 100 | O=C1Nc2cc(NS(=O)(=O)c3cccc(Cl)c3Cl)ccc2C12CCCC2 [Compound 212, 2,3-dichloro-N-(2′-oxospiro[cyclopentane-1,3′-indolin]-6′-yl)benzenesulfonamide] |
| > 1000 | Cc1c(F)cccc1S(=O)(=O)Nc1ccc2c(c1)C(=O)OCC2 [Compound 5, 3-fluoro-2-methyl-N-(1-oxoisochroman-7-yl)benzenesulfonamide] |
| < 100 | Cc1nc(C(C)Nc2ccc3nc[nH]c(=O)c3c2)sc1Cl (racemic) [Compound 216, 6-((1-(5-chloro-4-methylthiazol-2-yl)ethyl)amino)quinazolin-4(3H)-one] |
| < 100 | Cc1n[nH]c(=O)c2cc(NC(CO)c3c(Cl)ccc(F)c3Cl)ccc12 (racemic) [Example 250, 7-[[1-(2,6-dichloro-3-fluoro-phenyl)-2-hydroxy-ethyl]amino]-4-methyl-2H-phthalazin-1-one] |
| 100 to 500 | Cc1c(F)cccc1S(=O)(=O)Nc1ccc2c(c1)C(=O)N(C)CC2 [Compound 21, 3-fluoro-2-methyl-N-(2-methyl-1-oxo-1,2,3,4-tetrahydroisoquinolin-7-yl)benzenesulfonamide] |
| < 100 | C[C@@H](Nc1ccc2c(c1)NC(=O)C2(C)C)c1nc(Cl)c(Cl)s1 (single isomer, unassigned) [Compound 234] |
| < 100 | CC(Nc1ccc2ccn(CC(N)=O)c(=O)c2c1)c1nn(C)c(C2CC2)c1Cl (racemic) [Compound 315, 2-(7-((1-(4-chloro-5-cyclopropyl-1-methyl-1H-pyrazol-3-yl)ethyl)amino)-1-oxoisoquinolin-2(1H)-yl)acetamide] |
| 100 to 500 | Cc1ccc(F)cc1C(C)Nc1ccc2c(c1)C(=O)NCC2 (racemic) [Example 105, 7-((1-(5-fluoro-2-methylphenyl)ethyl)amino)-3,4-dihydroisoquinolin-1(2H)-one] |
